Activity calls are given as the source filed them.
Legend:
Streptococcus = test: GAS UMAA2166 growth inhibition – luminescence, BacTiterGlo, counter-screen for streptokinase expression inhibitor project, dose response (AID 1915); type: functional, organism-based;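 also: potency for reduction of bacterial viability or growth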
[1] = reduction of Shn3 3'UTR-driven luciferase in osteoblasts – cell-based, Clone20 osteoblasts, firefly luciferase, cherry-picked, dose response (AID 624132); type: functional;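 also: firefly luciferase luminescence from reporter carrying the Shn3 3'UTR in osteoblasts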
HEK293 = test: cells; conditions: Homo sapiens;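 also: cells exposed to compound for 14 hours overnight before viability readout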
[2] = test system: Streptococcus sp. 'group A'; test: Streptococcus pyogenes SK(-)GAS viability under kanamycin – luminescence, BacTiterGlo, confirmation, counter-screen for streptokinase expression inhibitor project, dose response (AID 1900); type: functional, organism-based
[3] = non-specific 3'UTR reporter inhibition in Clone20-Shn3RL – cell-based, Renilla luciferase, cherry-picked, counter-screen for Shn3 inhibitor project, dose response (AID 624133); type: functional
[4] = biological target: T1, Nucleotide-binding oligomerization domain-containing protein 1 (Homo sapiens, UniProt Q9Y239); test: blockers of NOD1 pathway activity – revised, SAR follow-up (AID 2333); type: functional
T1 sequence (Q9Y239 whole entry): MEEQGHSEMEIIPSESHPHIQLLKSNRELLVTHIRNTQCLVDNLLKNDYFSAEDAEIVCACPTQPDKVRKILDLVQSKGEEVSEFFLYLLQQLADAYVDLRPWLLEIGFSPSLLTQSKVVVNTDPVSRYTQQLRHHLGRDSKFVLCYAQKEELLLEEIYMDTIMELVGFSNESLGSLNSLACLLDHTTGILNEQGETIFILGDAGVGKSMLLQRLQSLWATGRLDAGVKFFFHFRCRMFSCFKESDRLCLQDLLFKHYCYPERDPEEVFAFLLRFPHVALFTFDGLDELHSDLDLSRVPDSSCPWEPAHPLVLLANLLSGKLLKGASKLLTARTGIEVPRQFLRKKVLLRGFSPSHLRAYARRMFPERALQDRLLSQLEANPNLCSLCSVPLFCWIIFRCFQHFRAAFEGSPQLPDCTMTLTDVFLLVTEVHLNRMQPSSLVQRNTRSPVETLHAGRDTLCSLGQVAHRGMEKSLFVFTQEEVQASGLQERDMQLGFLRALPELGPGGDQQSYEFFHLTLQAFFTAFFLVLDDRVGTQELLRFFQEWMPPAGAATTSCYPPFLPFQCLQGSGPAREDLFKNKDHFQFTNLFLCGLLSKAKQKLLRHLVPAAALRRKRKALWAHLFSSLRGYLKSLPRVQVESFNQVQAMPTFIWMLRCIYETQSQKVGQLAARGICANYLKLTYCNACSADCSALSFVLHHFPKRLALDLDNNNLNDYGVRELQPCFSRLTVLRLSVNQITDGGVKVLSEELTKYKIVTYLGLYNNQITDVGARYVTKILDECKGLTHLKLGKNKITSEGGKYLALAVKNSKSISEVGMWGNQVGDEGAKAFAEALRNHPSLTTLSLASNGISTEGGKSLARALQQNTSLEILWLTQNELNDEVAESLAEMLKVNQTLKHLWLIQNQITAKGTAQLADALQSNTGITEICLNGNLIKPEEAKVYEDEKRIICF

[5] = HepG2 cell cytotoxicity, dose response, cytotoxicity control for non-replicating M. tuberculosis project (AID 489018); type: functional; conditions: Mycobacterium tuberculosis
Tumor necrosis factor = Tumor necrosis factor (Homo sapiens, UniProt P01375); test: analog potency on TNFa NF-kB signaling – cell-based, revised, SAR follow-up (AID 2337); type: functional
Tumor necrosis factor, sequence (P01375 whole entry): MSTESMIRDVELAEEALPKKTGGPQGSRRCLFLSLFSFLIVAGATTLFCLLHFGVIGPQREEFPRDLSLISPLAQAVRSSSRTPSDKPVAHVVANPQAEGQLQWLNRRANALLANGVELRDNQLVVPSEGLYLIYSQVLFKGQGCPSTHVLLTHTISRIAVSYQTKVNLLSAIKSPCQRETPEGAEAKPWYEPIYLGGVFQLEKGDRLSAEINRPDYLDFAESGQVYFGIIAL

[6] = THP-1 cell cytotoxicity, dose response, cytotoxicity control for non-replicating M. tuberculosis project (AID 489025); type: functional
[7] = biological target: T2, Microphthalmia-associated transcription factor (Homo sapiens, UniProt O75030); test: reducers of TRPM1 reporter luminescence, concentration series – cell-based, SK-MEL-5, cherry-picked, set 3, MITF inhibitor project, dose response (AID 493073); type: functional;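 also: SK-MEL-5 melanoma cells with luciferase driven by the MITF target TRPM1 promoter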
T2 sequence (O75030 whole entry): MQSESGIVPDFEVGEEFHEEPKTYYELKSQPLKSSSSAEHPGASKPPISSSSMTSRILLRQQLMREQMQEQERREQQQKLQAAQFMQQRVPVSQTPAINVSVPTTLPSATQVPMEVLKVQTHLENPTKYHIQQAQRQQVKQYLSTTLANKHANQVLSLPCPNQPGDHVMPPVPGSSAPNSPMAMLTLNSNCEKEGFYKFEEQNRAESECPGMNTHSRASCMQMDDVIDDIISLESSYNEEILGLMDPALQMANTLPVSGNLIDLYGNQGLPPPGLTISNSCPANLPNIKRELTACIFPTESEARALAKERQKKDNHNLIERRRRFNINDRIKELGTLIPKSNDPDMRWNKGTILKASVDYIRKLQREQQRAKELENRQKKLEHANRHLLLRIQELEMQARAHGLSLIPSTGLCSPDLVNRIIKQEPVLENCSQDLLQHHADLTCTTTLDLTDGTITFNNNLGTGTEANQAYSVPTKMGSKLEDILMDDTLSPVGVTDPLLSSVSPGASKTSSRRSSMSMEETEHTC

[8] = Vero E6 cell cytotoxicity, dose response, cytotoxicity control for non-replicating M. tuberculosis project, secondary assay (AID 492998); type: functional, VeroE6; conditions: Vero C1008
[9] = A Cell Based Secondary Assay To Explore Cytotoxicity of Compounds that Sensitize Mycobacterium Tuberculosis to Beta-Lactam Antibiotics.; type: functional
[10] = loss of viability in HepG2 cells – cell-based, CellTiter-Glo, cherry-picked, cytotoxicity control for Shn3 inhibitor project, dose response (AID 624134); type: functional
cells = type: functional
[11] = biological target: T3, Mannose-6-phosphate isomerase (Homo sapiens, UniProt P34949); test: phosphomannose isomerase inhibition – biochemical, fluorescence intensity, confirmation (AID 1535)
T3 sequence (P34949 whole entry): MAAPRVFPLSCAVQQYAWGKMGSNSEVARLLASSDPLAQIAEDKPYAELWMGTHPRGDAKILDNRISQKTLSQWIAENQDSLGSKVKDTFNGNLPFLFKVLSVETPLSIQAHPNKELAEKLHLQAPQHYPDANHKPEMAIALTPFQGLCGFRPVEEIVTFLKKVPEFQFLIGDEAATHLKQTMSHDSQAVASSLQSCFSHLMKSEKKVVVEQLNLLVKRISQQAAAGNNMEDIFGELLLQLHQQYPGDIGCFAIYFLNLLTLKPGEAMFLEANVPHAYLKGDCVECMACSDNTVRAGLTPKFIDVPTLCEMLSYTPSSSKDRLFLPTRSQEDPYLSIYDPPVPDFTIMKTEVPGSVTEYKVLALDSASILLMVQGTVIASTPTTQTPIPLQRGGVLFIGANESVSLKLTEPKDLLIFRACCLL

Phosphomannomutase 2 = Phosphomannomutase 2 (Homo sapiens, UniProt O15305); test: Counter screen SAR assay for PMM2 inhibitors via a fluorescence intensity assay. [Related pubchem assays (depositor defined):AID1545, AID1574]
Phosphomannomutase 2, sequence (O15305 whole entry): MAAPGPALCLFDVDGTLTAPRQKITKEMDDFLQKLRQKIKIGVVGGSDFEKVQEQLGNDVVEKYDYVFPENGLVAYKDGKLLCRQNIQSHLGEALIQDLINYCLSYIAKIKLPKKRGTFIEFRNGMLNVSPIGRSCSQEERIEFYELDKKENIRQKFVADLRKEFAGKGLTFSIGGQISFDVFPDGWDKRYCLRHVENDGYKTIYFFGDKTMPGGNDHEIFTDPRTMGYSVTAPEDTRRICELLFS

Cytochrome P450 2D6 = Cytochrome P450 2D6 (Homo sapiens, UniProt P10635);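 also: CYP2D6 member of a cytochrome P450 panel assay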
[12] = biological target: T4, Voltage-gated N-type calcium channel alpha-1B subunit/Amyloid beta A4 precursor protein-binding family A member 1 (Homo sapiens, UniProt Q00975+Q02410); type: protein assay
T4 sequence (Q00975 whole entry): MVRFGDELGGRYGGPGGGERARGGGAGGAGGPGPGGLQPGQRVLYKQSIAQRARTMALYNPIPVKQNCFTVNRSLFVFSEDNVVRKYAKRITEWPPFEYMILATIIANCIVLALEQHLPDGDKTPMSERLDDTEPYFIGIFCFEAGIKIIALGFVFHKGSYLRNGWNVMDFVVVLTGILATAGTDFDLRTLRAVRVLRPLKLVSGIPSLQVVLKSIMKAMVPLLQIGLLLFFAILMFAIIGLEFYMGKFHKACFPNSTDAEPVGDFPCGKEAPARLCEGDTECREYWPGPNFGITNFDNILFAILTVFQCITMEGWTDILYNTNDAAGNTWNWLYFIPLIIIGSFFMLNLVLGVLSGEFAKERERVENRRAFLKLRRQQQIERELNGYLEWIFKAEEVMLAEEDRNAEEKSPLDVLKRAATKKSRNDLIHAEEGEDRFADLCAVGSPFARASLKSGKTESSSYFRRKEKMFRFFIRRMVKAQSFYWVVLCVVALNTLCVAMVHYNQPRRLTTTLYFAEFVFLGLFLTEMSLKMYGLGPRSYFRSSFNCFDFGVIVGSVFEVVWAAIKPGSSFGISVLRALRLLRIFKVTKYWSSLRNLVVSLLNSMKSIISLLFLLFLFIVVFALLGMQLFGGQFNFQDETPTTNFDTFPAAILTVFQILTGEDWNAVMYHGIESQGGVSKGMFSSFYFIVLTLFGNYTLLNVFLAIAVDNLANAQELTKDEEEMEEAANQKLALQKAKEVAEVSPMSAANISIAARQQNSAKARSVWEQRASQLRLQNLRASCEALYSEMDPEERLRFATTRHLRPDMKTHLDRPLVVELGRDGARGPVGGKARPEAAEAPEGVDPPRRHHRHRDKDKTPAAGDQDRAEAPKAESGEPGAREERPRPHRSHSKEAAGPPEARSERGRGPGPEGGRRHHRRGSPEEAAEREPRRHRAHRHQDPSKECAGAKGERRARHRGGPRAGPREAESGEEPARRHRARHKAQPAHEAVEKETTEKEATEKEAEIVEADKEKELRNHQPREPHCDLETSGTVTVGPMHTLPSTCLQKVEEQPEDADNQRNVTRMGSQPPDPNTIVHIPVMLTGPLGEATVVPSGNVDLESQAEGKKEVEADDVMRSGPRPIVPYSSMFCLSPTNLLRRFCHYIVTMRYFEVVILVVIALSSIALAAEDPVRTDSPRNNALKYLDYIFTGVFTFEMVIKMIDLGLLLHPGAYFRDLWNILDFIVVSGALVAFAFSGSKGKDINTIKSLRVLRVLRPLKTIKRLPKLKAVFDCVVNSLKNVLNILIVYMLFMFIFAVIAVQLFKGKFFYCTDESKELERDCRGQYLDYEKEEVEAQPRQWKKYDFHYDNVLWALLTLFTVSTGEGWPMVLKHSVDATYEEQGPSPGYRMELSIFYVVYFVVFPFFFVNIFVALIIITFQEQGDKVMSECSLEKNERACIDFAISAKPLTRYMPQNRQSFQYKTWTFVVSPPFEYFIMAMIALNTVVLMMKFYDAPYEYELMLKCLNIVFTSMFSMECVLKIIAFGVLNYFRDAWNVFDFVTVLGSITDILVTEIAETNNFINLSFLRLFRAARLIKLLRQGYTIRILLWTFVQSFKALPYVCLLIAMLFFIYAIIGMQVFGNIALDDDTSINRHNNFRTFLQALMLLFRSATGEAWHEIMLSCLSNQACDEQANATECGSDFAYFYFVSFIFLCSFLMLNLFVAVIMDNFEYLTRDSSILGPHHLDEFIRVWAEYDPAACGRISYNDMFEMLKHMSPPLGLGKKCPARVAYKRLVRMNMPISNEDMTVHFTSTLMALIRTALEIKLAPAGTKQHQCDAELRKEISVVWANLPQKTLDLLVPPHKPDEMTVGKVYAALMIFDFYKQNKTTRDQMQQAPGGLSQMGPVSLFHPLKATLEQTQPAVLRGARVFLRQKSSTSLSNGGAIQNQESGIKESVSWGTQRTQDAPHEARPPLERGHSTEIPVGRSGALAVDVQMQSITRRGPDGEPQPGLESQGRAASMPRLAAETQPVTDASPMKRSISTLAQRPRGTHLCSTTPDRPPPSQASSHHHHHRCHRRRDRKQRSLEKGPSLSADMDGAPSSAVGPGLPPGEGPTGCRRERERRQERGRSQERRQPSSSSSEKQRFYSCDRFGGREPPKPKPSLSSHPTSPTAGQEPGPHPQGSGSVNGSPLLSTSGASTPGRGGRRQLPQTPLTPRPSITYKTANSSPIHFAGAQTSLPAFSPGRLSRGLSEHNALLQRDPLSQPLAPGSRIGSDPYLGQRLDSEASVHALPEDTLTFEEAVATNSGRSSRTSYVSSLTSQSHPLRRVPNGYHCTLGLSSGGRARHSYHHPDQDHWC
T4 sequence (Q02410 whole entry): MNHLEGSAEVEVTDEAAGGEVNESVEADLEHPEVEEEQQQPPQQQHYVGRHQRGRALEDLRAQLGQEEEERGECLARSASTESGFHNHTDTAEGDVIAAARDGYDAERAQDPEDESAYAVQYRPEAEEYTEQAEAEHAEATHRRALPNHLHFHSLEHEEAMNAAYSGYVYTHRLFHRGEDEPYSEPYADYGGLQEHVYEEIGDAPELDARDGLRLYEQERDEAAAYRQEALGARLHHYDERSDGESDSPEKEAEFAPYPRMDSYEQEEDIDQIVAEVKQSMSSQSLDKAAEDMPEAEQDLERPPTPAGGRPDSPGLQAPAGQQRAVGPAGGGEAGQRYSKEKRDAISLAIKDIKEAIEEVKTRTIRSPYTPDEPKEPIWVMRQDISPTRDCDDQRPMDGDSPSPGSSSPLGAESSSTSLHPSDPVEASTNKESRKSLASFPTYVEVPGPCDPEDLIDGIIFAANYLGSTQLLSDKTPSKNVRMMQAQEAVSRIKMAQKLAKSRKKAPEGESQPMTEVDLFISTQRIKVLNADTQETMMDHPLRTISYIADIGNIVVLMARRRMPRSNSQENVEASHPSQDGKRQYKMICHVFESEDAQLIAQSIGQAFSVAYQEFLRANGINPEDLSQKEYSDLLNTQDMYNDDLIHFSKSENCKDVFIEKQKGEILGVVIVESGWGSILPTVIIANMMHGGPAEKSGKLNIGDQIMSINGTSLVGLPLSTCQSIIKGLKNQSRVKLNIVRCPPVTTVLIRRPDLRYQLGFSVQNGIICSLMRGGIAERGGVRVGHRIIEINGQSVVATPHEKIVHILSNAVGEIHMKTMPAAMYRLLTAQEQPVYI

Kallikrein-7 = Kallikrein-7 (Homo sapiens, UniProt P49862); test: Fluorescence Intensity-based biochemical primary high throughput dose response assay to identify activators of kallikrein-7 (K7) zymogen.
Kallikrein-7, sequence (P49862 whole entry): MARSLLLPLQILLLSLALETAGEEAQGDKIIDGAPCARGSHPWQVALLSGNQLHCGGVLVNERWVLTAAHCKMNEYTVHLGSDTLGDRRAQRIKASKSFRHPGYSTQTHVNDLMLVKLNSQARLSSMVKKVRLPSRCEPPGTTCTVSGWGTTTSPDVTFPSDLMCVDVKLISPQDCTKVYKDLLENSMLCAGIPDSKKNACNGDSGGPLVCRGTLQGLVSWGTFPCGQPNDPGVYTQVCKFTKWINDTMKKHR

SUMO E1/E2 = SUMO E1/E2 (Homo sapiens, UniProt P63279+Q9UBE0+Q9UBT2); test: SAR analysis of SUMOylation using HTRF in an in-Vitro dose response assay. [Related pubchem assays (depositor defined):AID2006, AID2011, AID2018, AID2069, AID2658]; type: functional
SUMO E1/E2, sequence (Q9UBE0 whole entry): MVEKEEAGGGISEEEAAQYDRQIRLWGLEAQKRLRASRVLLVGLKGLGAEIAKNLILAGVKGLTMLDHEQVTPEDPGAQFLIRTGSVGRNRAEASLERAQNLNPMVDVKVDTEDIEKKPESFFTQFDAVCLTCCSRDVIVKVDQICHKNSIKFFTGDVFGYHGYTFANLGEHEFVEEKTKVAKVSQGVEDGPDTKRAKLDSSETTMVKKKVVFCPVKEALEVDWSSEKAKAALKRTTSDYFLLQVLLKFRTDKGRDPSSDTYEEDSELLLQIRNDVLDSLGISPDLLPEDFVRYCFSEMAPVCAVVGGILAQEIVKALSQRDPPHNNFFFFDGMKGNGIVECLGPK
SUMO E1/E2, sequence (Q9UBT2 whole entry): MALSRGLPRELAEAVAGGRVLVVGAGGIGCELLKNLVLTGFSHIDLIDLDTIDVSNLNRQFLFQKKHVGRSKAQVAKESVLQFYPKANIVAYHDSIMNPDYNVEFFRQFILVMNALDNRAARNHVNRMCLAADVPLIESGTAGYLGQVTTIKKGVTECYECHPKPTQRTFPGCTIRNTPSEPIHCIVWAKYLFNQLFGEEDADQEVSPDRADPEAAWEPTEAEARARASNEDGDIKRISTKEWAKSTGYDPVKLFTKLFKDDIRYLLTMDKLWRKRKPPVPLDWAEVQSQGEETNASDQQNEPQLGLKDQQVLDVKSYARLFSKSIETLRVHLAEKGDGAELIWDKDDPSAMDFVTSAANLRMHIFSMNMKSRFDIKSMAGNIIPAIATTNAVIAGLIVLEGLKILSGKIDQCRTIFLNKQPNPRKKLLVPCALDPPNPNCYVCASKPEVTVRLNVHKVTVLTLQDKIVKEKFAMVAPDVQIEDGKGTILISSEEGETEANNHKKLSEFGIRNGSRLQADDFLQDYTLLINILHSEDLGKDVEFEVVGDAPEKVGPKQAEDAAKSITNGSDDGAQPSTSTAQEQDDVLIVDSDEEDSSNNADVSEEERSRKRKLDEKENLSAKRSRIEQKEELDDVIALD
SUMO E1/E2, sequence (P63279 whole entry): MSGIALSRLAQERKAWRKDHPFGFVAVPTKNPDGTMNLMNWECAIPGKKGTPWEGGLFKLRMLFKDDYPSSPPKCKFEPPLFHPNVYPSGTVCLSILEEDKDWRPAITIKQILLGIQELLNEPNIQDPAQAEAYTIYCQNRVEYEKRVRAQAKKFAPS

[13] = biological target: Eukaryotic translation initiation factor 4E (Mus musculus, UniProt P63073); test: blockers of eIF4G binding by eIF4E – biochemical, TR-FRET, dose response (AID 855); type: functional;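 also: potency for disrupting eIF4E binding to eIF4GI seen as loss of FRET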
[14] = biological target: T4, Voltage-gated N-type calcium channel alpha-1B subunit/Amyloid beta A4 precursor protein-binding family A member 1; test: disruptors of Mint-PDZ/N-type channel peptide interaction – biochemical, HTRF, SAR follow-up (AID 2489); type: functional
[15] = biological target: T4, Voltage-gated N-type calcium channel alpha-1B subunit/Amyloid beta A4 precursor protein-binding family A member 1; test: disruptors of Mint-PDZ/N-type channel peptide interaction – biochemical, HTRF, set 2, SAR follow-up (AID 434980); type: functional
[16] = biological target: Induced myeloid leukemia cell differentiation protein Mcl-1 (Homo sapiens, UniProt Q07820); type: functional
[17] = biological target: T4, Voltage-gated N-type calcium channel alpha-1B subunit/Amyloid beta A4 precursor protein-binding family A member 1; type: protein assay; remark: listed apart in the source

Structure (SMILES): CCCCCn1c(=O)c(C(=O)Nc2cnccn2)c(O)c2ccccc21
- EC50 (Streptococcus): 5.32 µM (active)
- AC50 [1]: 1.54 µM (active)
- IC50 (HEK293): > 20 µM (inactive)
- EC50 [2]: 3.24 µM (active)
- AC50 [3]: 3.1 µM (active)
- IC50 [4]: 11.3 µM (active)
- CC50 [5]: 13.5 µM (active)
- IC50 (Tumor necrosis factor): > 20 µM (inactive)
- CC50 [6]: 5.17 µM (active)
- AC50 [7]: 5.93 µM (active)
- CC50 [8]: 4.02 µM (active)
- CC50 [9]: 2.4 µM (active)
- AC50 [10]: > 70 µM (inactive)
- IC50 (cells): 3.04 µM (active)

Structure (SMILES): Cc1cc2n(n1)SC(Nc1ccccc1)N2 (stereo not given)
- IC50 [11]: > 50 µM (inactive)
- IC50 (Phosphomannomutase 2): > 100 µM (inactive)

Structure (SMILES): N/C(CC/C(N)=N/O)=N\O
- AC50 (Cytochrome P450 2D6): inconclusive

Structure (SMILES): CCN(CC)C(=O)COC(=O)c1cc(-c2ccco2)nc2ccccc12
- IC50 [12]: 4.92 µM (active)
- EC50 (Kallikrein-7): 23 µM (inactive)
- IC50 (SUMO E1/E2): 2.71 µM (active)
- IC50 [13]: 50 µM (inactive)
- IC50 [14]: 13.9 µM (active)
- IC50 [15]: 19.2 µM (active)
- IC50 [16]: 3.26 µM (active)
- IC50 [17]: 12.7 µM (active)

Source: ChEMBL document CHEMBL1201862, “PubChem BioAssay data set” (2004)
